# Laboratory results taken from patent publication US8829039B2, “Dihydroindolinone derivatives” (Shanghai Institute of Pharmaceutical Industry, priority 2008, dated 2014).
# pIC50: −log10 of the molar value.
# Experiments:
# [1] = test system: human lung cancer cell A549; experiment: Anti-tumor activity assay (MTT), A549; format: cell-based; details: 48 hrs, samples stored at −20° C. for one week, read-out: Inhibition rate; for inhibition at 0.1 µg/mL: final concentration 0.1 μg/mL; for inhibition at 1 µg/mL: final concentration 1 μg/mL; for inhibition at 10 µg/mL: final concentration 10 μg/mL
# Protocol: (§1) These tests were carried out using conventional operations in the art. Specifically, the following materials and methods were employed:
# (§2) Human cervical cancer cell Hela, human liver cancer cell SMMC-7721, human lung cancer cell A549, poorly differentiated human gastric adenocarcinoma cell BGC-823, human breast cancer cell MDA-MB-231.
# (§3) To a bottle containing exponential growth phase cells in good condition, 0.25% trypsin solution was added. […] The cell suspension was seeded in a 96-well plate with an amount of 100 μL/well, incubated in a CO2 incubator for 24 hrs. 20 μL/well of tested compounds were added, followed by […], of 10% serum medium, and incubated for 48 hrs. 20 μL/well of MTT (5 mg/mL) was added to the 96-well plate, and the cells were incubated for 4 hrs in the incubator. After removing the supernatant, 150 μL/well of DMSO was added, and the cells were shaked in a horizontal swing bed for 10 minutes. Optical density value (OD value) of each well was measured with an ELISA analyzer at 490 nm, and cell inhibition rate was calculated. The corresponding solvent was used as negative control, and paclitaxel was used as positive control.
# [2] = test system: human breast cancer cell MDA-MB-231; experiment: Anti-tumor activity assay (MTT), MDA-MB-231; format: cell-based; details: 48 hrs, samples stored at −20° C. for one week, read-out: Inhibition rate; for inhibition at 0.1 µg/mL: final concentration 0.1 μg/mL; for inhibition at 1 µg/mL: final concentration 1 μg/mL; for inhibition at 10 µg/mL: final concentration 10 μg/mL
# Protocol: as §1, §2, §3
# [3] = test system: poorly differentiated human gastric adenocarcinoma cell BGC-823; experiment: Anti-tumor activity assay (MTT), BGC-823; format: cell-based; details: 48 hrs, samples stored at −20° C. for one week, read-out: Inhibition rate; for inhibition at 0.1 µg/mL: final concentration 0.1 μg/mL; for inhibition at 1 µg/mL: final concentration 1 μg/mL; for inhibition at 10 µg/mL: final concentration 10 μg/mL
# Protocol: as §1, §2, §3
# [4] = test system: human liver cancer cell SMMC-7721; experiment: Anti-tumor activity assay (MTT), SMMC-7721; format: cell-based; details: 48 hrs, samples stored at −20° C. for one week, read-out: Inhibition rate; for inhibition at 0.1 µg/mL: final concentration 0.1 μg/mL; for inhibition at 1 µg/mL: final concentration 1 μg/mL; for inhibition at 10 µg/mL: final concentration 10 μg/mL
# Protocol: as §1, §2, §3
# [5] = test system: Human cervical cancer cell Hela; experiment: Anti-tumor activity assay (MTT), Hela; format: cell-based; details: 48 hrs, samples freshly prepared with DMSO, read-out: Inhibition rate; for inhibition at 0.1 µg/mL: final concentration 0.1 μg/mL; for inhibition at 1 µg/mL: final concentration 1 μg/mL; for inhibition at 10 µg/mL: final concentration 10 μg/mL
# Protocol: as §1, §2, §3
# breast cancer cell A435 = experiment: Inhibition of tumor cell proliferation in vitro (MTT), A435; format: cell-based; details: 48 hrs, read-out: Growth inhibition in vitro IC50
# Protocol: (§4) The activity assay of the compounds of the invention was carried out through common methods in the art. Commercially available Sunitinib was used as positive control, and lung cancer cell H460, colon cancer cell COLO205 and HT29, breast cancer cell A435 were used as exemplary tumor cells. The tested compounds were prepared by the methods disclosed in the Examples above.
# (§5) A certain amount (100 μL/well, 0.5−1×10^4 cells/mL) of lung cancer cell H460, colon cancer cell COLO205, and breast cancer cell A435, etc. in logarithmic growth phase were seeded in a 96-well plate, and incubated in an incubator for 24 hrs at 37° C. and 5% CO2. Afterwards, tested compounds and positive control (20 μL/wells) were added, followed by 80 µL of 10% serum medium, and then the tumor cells were incubated for further 48 hrs at 37° C. and 5% CO2. Afterwards, MTT (5 mg/mL) was added to the 96-well plates (20 μL/well), and the cells were incubated for another 4 h. After removing the supernatant, the cells were dissolved with DMSO (150 μL/well) and measured with a microplate reader at 490 nm.
# Lung cancer cell H460 = experiment: Inhibition of tumor cell proliferation in vitro (MTT), H460; format: cell-based; details: Homo sapiens, NCI-H460, 48 hrs, read-out: Growth inhibition in vitro IC50
# Protocol: as §4, §5
# Fibroblast NIH/3T3 = experiment: Inhibition of fibroblast NIH/3T3 proliferation (MTT); format: cell-based; details: Mus musculus, NIH3T3, 48 h, read-out: Inhibition of NIH/3T3 cell proliferation in vitro IC50
# Text: The method commonly used at present for studying fibroblast proliferation associated diseases, i.e., for studying tissue and organ fibrosis, is measuring effects of test compounds on NIH/3T3 cell proliferation (Gao Z. M., Wan K., Effect of inhibition of NIH/3T3 cell proliferation by Cantharidin on prevention and treatment of organ and tissue fibrosis. Chinese Journal of Clinical Rehabilitation, 2004 (2). Tao Y. Y., Wang X. L., Effects of Salvianolic Acid-B on TGF-β1/ERK Signaling Transduction in NIH/3T3 Fibroblast. Journal of Capital Medical University, 2007 (2)).
# Fibroblast NIH/3T3 in logarithmic growth phase was seeded in a 96-well plate, by a certain number of cells (100 μL/well, 0.5−1×10^4 cells/mL). After incubating for 24 h, the screened samples (20 μl/well) were added (directly added after cell suspension was seeded in the plate), incubated for further 48 h at 37° C. and 5% CO2. Afterwards, MTT (5 mg/mL) was added to the 96-well plate (20 μL/well). The cells were incubated for another 4 h, and then dissolved with DMSO (150 μL/well) and measured with a microplate reader at 490 nm. The inhibition rate and IC50 were calculated.
# [6] = test system: human colon cancer HT-29 cells transplanted in nude mice; experiment: Growth inhibition of human cancer HT-29 cells transplanted in nude mice; format: in vivo; details: for Body weight d0 / Body weight d21: nude mice with HT-29 tumor; for Body weight d0: d0, time of administration in separate cages; for Body weight d0 / TV d0: 30 mg/kg group; for Body weight d21 / T/C (%) / RTV / TV d21: 30 mg/kg intragastrically once a day for 21 days; for T/C (%): relative tumor proliferation rate TRTV/CRTV; for RTV: relative tumor volume TVt/TV0; for TV d0: tumor volume at d0, time of administration in separate cages; for TV d21: tumor volume at d21
# Protocol: A piece of tumor tissue in vigorous growth phase was obtained and cut into the size of about 1.5 mm^3, and subcutaneously inoculated into the right axillary region of nude mice aseptically. Diameters of transplanted tumors in nude mice were measured with a vernier caliper. After tumors grew to 100˜300 mm^3, the animals were randomly divided into 6 groups: model control group, Sunitinib group (30 mg/kg), Compound 1 group (30 mg/kg), Compound 2 group (30 mg/kg), Compound 3 group (30 mg/kg), Compound 4 group (30 mg/kg). […] Meanwhile, the negative control group was administered equivalent amount of sterile saline. The dynamic observation of antitumor effects of compounds 1-4 and Sunitinib was performed by measuring tumor diameters. […] The general behavior of nude mice was observed and recorded daily. (1) Tumor volume (TV), calculated by the equation: […] wherein a, b represent length and width, respectively. […] RTV=TVt/TV0 wherein TV0 represents the tumor volume at the beginning of administration in separated cages (ie. d0), TVt represents the tumor volume of each measurement. […] T/C %=(TRTV/CRTV)×100% TRTV: RTV of positive control group and each test compound group. CRTV: RTV of model control group.
# [7] = test system: colon cancer cell COLO205; experiment: Inhibition of tumor cell proliferation in vitro (MTT), COLO205; format: cell-based; details: Homo sapiens, COLO 205, 48 hrs, read-out: Growth inhibition in vitro IC50
# Protocol: as §4, §5
SMILES,pIC50 (breast cancer cell A435),pIC50 (Lung cancer cell H460),pIC50 [7],inhibition at 0.1 µg/mL [1] [%],inhibition at 1 µg/mL [1] [%],inhibition at 0.1 µg/mL [2] [%],inhibition at 1 µg/mL [2] [%],inhibition at 10 µg/mL [2] [%],inhibition at 0.1 µg/mL [3] [%],inhibition at 1 µg/mL [3] [%],inhibition at 0.1 µg/mL [4] [%],inhibition at 1 µg/mL [4] [%],inhibition at 0.1 µg/mL [5] [%],inhibition at 1 µg/mL [5] [%],inhibition at 10 µg/mL [5] [%],pIC50 (Fibroblast NIH/3T3),Body weight d0 [6] [g],Body weight d21 [6] [g],T/C (%) [6] [%],RTV [6],further results
"CC(=O)O[C@H]1C(=O)[C@@]2(C)[C@H]([C@H](OC(=O)c3ccccc3)[C@]3(O)C[C@H](OC(=O)[C@H](O)[C@@H](NC(=O)c4ccccc4)c4ccccc4)C(C)=C1C3(C)C)[C@]1(OC(C)=O)CO[C@@H]1C[C@@H]2O [Paclitaxel, reference compound]",,,,20.1,23.8,5.9,4.9,29.5,85.1,86.6,-6.71,-6.59,79.7,78.1,72.7,,,,,,
Cc1[nH]c(/C=C2\C(=O)Nc3ccc(F)cc32)c(C)c1C(=O)NCC1CCNCC1 [Compound 4],6.66,6.24,6.40,,,,,,,,,,,,,5.93,20.0 ± 2.2,20.3 ± 1.5,41.0,3.6 ± 3.2,TV d0 [6]: 195.0 ± 67.4 mm^3; TV d21 [6]: 791.7 ± 815.0 mm^3
"CCN1CCCC1CNC(=O)C(C)NC(=O)c1c(C)[nH]c(/C=C2\C(=O)Nc3ccc(F)cc32)c1C (stereo not shown) [Compound 12, N-{2-[(1-ethylpyrrolidin-2-yl)methylamino]-1-oxoprop-2-yl}-5-(5-fluoro-2-oxo-1,2-dihydroindole-3-methylene)-2,4-dimethyl-1H-pyrrole-3-formamide]",6.80,6.36,6.51,,,,,,,,,,,,,,,,,,
"CCN(CC)CCNC(=O)c1c(C)[nH]c(/C=C2\C(=O)Nc3ccc(F)cc32)c1C [Sunitinib, reference compound]",6.20,6.17,6.26,7.29,29.1,6.4,28.9,90.2,9.53,19.2,-38.8,-12.3,-0.21,24.7,99.2,,20.4 ± 2.0,21.0 ± 1.9,51.5,4.6 ± 1.5,inhibition at 10 µg/mL [1]: 98.7%; TV d0 [6]: 198.2 ± 62.4 mm^3; TV d21 [6]: 911.8 ± 481.7 mm^3; inhibition at 10 µg/mL [3]: 88.8%; inhibition at 10 µg/mL [4]: 72.5%

# Further lines, with some results ahead:
pIC50 (breast cancer cell A435),pIC50 (Lung cancer cell H460),pIC50 [7],SMILES,inhibition at 0.1 µg/mL [1] [%],inhibition at 1 µg/mL [1] [%],inhibition at 0.1 µg/mL [2] [%],inhibition at 1 µg/mL [2] [%],inhibition at 10 µg/mL [2] [%],inhibition at 0.1 µg/mL [3] [%],inhibition at 1 µg/mL [3] [%],inhibition at 0.1 µg/mL [4] [%],inhibition at 1 µg/mL [4] [%],inhibition at 0.1 µg/mL [5] [%],inhibition at 1 µg/mL [5] [%],inhibition at 10 µg/mL [5] [%],pIC50 (Fibroblast NIH/3T3),Body weight d0 [6] [g],Body weight d21 [6] [g],T/C (%) [6] [%],RTV [6],further results
7.20,7.21,7.11,"CCN1CCCC1CNC(=O)c1c(C)[nH]c(/C=C2\C(=O)Nc3ccc(F)cc32)c1C (stereo not shown) [Compound 1, N-[(1-ethylpyrrolidin-2-yl)methyl]-5-(5-fluoro-2-oxo-1,2-dihydroindole-3-methylene)-2,4-dimethyl-1H-pyrrole-3-formamide]",18.6,31.1,-8.3,6.9,92.2,14.8,20,-21.2,-0.47,4.69,32.5,97.4,6.69,20.2 ± 1.9,21.5 ± 1.3,10.1,0.9 ± 0.2,inhibition at 10 µg/mL [1]: 99.3%; growth inhibition of human colon cancer HT-29 cells transplanted in nude mice (in words) ([6]; 30 mg/kg continuously administered intragastrically): strongest inhibition of tumor proliferation; TV d0 [6]: 194.7 ± 57.7 mm^3; TV d21 [6]: 163.7 ± 33.6 mm^3; inhibition at 10 µg/mL [3]: 93.9%; inhibition at 10 µg/mL [4]: 88.5%; melting point: 232 to 236 °C
7.06,6.48,6.66,"Cc1[nH]c(/C=C2\C(=O)Nc3ccc(F)cc32)c(C)c1C(=O)NC1CCN(Cc2ccccc2)C1 (stereo not shown) [Compound 6, N-(1-benzylpyrrolidin-3-yl)-5-(5-fluoro-2-oxo-1,2-dihydroindole-3-methylene)-2,4-dimethyl-1H-pyrrole-3-formamide]",,,,,,,,,,,,,6.16,,,,,
6.82,6.39,6.55,"CCN1CCCC1CNC(=O)CNC(=O)c1c(C)[nH]c(/C=C2\C(=O)Nc3ccc(F)cc32)c1C (stereo not shown) [Compound 11, N-{2-[(1-ethylpyrrolidin-2-yl)methylamino]-2-oxoethyl}-5-(5-fluoro-2-oxo-1,2-dihydroindole-3-methylene)-2,4-dimethyl-1H-pyrrole-3-formamide]",,,,,,,,,,,,,,,,,,
7.09,6.64,6.77,"Cc1[nH]c(/C=C2\C(=O)Nc3ccc(F)cc32)c(C)c1C(=O)Nc1ccc(N(C)C)cc1 [Compound 7, N-[4-(dimethylamino)phenyl]-5-(5-fluoro-2-oxo-1,2-dihydroindole-3-methylene)-2,4-dimethyl-1H-pyrrole-3-formamide]",,,,,,,,,,,,,6.30,,,,,
7.04,6.77,6.80,"Cc1[nH]c(/C=C2\C(=O)Nc3ccc(F)cc32)c(C)c1C(=O)NCC(=O)Nc1ccc(N(C)C)cc1 [Compound 8, N-{2-[4-(dimethylamino)anilino]-2-oxoethyl}-5-(5-fluoro-2-oxo-1,2-dihydroindole-3-methylene)-2,4-dimethyl-1H-pyrrole-3-formamide]",,,,,,,,,,,,,6.05,,,,,
